Assay results published in PMC4129416, “YLT192, a Novel, Orally Active Bioavailable Inhibitor of VEGFR2 Signaling with Potent Antiangiogenic Activity and Antitumor Efficacy in Preclinical Models” (Scientific Reports, 2014).

What was measured:
[1] = cited from earlier work; for toxicities after single doses: rat, in vivo; for maximal tolerance dose (MTD): rats, ref http://www.accessdata.fda.gov/drugsatfda
HUVEC [2] = experiment: Wound healing migration assay; format: cell-based, human; conditions: various concentrations; 24 hours
Source text: (§1) Cell migration is essential for ECs in angiogenesis and for cancer cells in tumor growth and metastasis. […] Cell invasion is essential for EC in angiogenesis, so we performed transwell assays to evaluate the ability of HUVEC to pass through the Matrigel and membrane barriers of the transwell in the presence of various concentrations of YLT192 or vehicle.
Figure 2 Effects of YLT192 on HUVECs proliferation, migration, invasion and tube formation. […] Cells were wounded by the pipette and then treated with various concentrations of compounds for 24 hours. Migrated cells were quantified by manual counting (50×). […] The bottom chambers of the transwells were filled with 600 μL EGM2 containing various growth factors while the top chambers were seeded with 4 × 10^4 HUVECs in EBM2 and treated with different concentrations of compounds for 24 hours. Cells invaded through the membrane were stained and quantified (100×). […] HUVECs were seeded on Matrigel layer and treated with different concentrations of compounds. HUVECs tube formation was assessed 6 hours later (50×). One representative experiment of three is shown. For (A), (B) and (C), data represent the mean ± SEM of three different experiments. Each experiment was performed in duplicate.*P < 0.05, **P < 0.01. (D) YLT192 inhibited VEGF-induced phosphorylation of VEGFR2 and its downstream signal regulator p44/42 MAPK, STAT3 and AKT in HUVECs. One representative Western blot of three is presented. Each has the expression of β-actin as internal control. The full size blots were shown in the Supplemental Figure S5 online. (E) Cellular thermal shift assay showing VEGFR2 target engagement by YLT192 in intact HUVECs. One representative Western blot of two is presented. The full size blots were shown in the Supplemental Figure S6 online. […]
(§2) HUVECs were allowed to grow into full confluence in 24-well plates and then wounded by scratching with pipette tips and washed with PBS. […] Images were taken using a ZEISS digital microscope and invading cells were counted by manual counting. […]

HUVEC [3] = experiment: Transwell invasion assay; format: cell-based, human; conditions: various concentrations; 24 hours; concentration-dependent
Source text: as §1
Figure 2 Effects of YLT192 on HUVECs proliferation, migration, invasion and tube formation. […] Cells were wounded by the pipette and then treated with various concentrations of compounds for 24 hours. Migrated cells were quantified by manual counting (50×). […] The bottom chambers of the transwells were filled with 600 μL EGM2 containing various growth factors while the top chambers were seeded with 4 × 10^4 HUVECs in EBM2 and treated with different concentrations of compounds for 24 hours. Cells invaded through the membrane were stained and quantified (100×). […] HUVECs were seeded on Matrigel layer and treated with different concentrations of compounds. HUVECs tube formation was assessed 6 hours later (50×). One representative experiment of three is shown. […]
as §2

HUVEC [4] = experiment: Capillary-like tube formation assay; format: cell-based, human; conditions: designed concentrations; 6 hours; Matrigel
Procedure: To elucidate the possible mechanisms of angiogenesis inhibition, tube formation ability of ECs, which is a critical step in the process of angiogenesis, was assessed in HUVEC in vitro.
The anti-angiogenesis ability of YLT192 in vitro was evaluated using capillary tube formation assay as described previously. Briefly, 96-well plate was pre-incubated with Matrigel at 37°C for 45 minutes. Then HUVECs (2 × 10^4 cells) suspended in EGM2 medium were seeded onto the Matrigel. They were treated with various concentrations of YLT192. After 6 hours incubation at 37°C, tube formation was assessed with an OLYMPUS inverted digital camera in low power fields (50×). Vandetanib served as positive control. The assay was replicated 3 times.

## CCN(CC)CCNC(=O)c1c(C)[nH]c(/C=C2\C(=O)Nc3ccc(F)cc32)c1C [sunitinib]
[1]
  toxicities after single doses: toxicities in the gastrointestinal tract and liver
  maximal tolerance dose (MTD): 500 mg/kg

## CNC(=O)c1cc(Oc2ccc(NC(=O)Nc3ccc(Cl)c(C(F)(F)F)c3)cc2)ccn1 [sorafenib]
[1]
  toxicities after single doses: toxicities in the gastrointestinal tract and liver
  maximal tolerance dose (MTD): 500 mg/kg

## COc1cc2c(Nc3ccc(Br)cc3F)ncnc2cc1OCC1CCN(C)CC1 [Vandetanib, reference compound]
HUVEC [2]
  HUVECs migration in wound healing assay: inhibited HUVECs migration
HUVEC [3]
  invasion of HUVECs in transwell assay: inhibted HUVECs invasion
HUVEC [4]
  tube formation of HUVEC: inhibited HUVECs tube formation
